Where “and” joins values, the source holds several entries; their conditions need not be identical. Identical values can stand only once.
Columns and labels:
Test in all cases: Cell-free AMPK kinase assay (SAMS peptide)
Type in all cases: biochemical
AMPKα1β1γ1 [1] = biological target: T1, AMPKα1β1γ1 (Homo sapiens, UniProt P54619+Q13131+Q9Y478)
T1 construct: made in house; host or cells: HEK293 (transient transfection, anti-FLAG immunoprecipitate)
Procedure: (§1) Heterotrimeric human AMPK FLAG- α1β1γ1, FLAG- α2β1γ1, and FLAG- α2β2γ1, as well as human FLAG-CaMKK2 and FLAG-ULK1, were produced in mammalian HEK293 cells as described ([66], [67]). For AMPK expression, the cells were triply transfected at 60% confluency using FuGene HD (Roche Applied Science) and 1 μg of pcDNA3 plasmid expression constructs for AMPK Flag-α1, β1-Myc, β2-Myc, and HA-γ1. For CaMKK2 expression, the cells were transfected with 1 μg of pcDNA3 Flag-CaMKK2 plasmid. For ULK1 expression, the cells were transfected with […] of pcDNA3 FLAG-ULK1 plasmid. After 48 hours, the transfected cells were harvested by rinsing with ice-cold PBS, followed by rapid lysis using 500 μl of lysis buffer. AMPK, CaMKK2, and ULK1 kinase activities were determined by phosphorylation of synthetic peptide substrates: SAMS (HMRSAMSGLHLVKRR), CaMKKtide ([…]), and S108tide. (KLPLTRSHNNFVARRR), respectively. Briefly, recombinant AMPK, CaMKK2, or ULK1 were immunoprecipitated from 10 μg of transfected cultured cell lysate using 10 μl of anti-FLAG M2 agarose beads [50% (v/v)] (Merck MilliporeSigma), washed, and then added to a 25-μl reaction containing assay buffer [50 mM Hepes-NaOH (pH 7.4), 1 mM DTT, and 0.02% (v/v) Brij-35], 200 μM synthetic peptide substrate (SAMS, CaMKKtide, or S108tide), 200 or 20 μM [γ-^32P]-ATP (PerkinElmer), 5 mM MgCl2, in the presence of 0 to 1 μM BAY-3827 or BAY-974. Reactions were performed at 30°C and terminated after 10 min by spotting 15 μl onto phosphocellulose paper. Radioactivity was quantified by liquid scintillation counting. Data visualization and nonlinear regression fitting were performed in GraphPad Prism v10.
(§2) Data points are plotted as means ± SEM. Data were inputted, and all statistical tests were performed using GraphPad Prism, version 10.1.0. One- or two-way analysis of variance (ANOVA) statistical tests were conducted using Tukey’s correction for multiple comparisons; specific test will be stated in the figure legend. Significance was accepted as P < 0.05. N number and statistical details for each experiment are reported in each figure legend. […] To estimate IC50 values, nonlinear regression fitting was conducted using the model (Inhibitor) versus response—variable slope in GraphPad Prism (version 10.1.0) and estimating values reported in nanomolar. To estimate binding affinities (Kd) from performed spectral shift binding assays, data were fitted using a one-site total model [Y = BmaxX/(Kd + X) + NSX + Background] where X is the ligand concentration, Bmax represents the maximum binding, and NS is the slope of the nonlinear regression of Y/X. Values are reported in means ± SEM in micromolar.

AMPKα2β2γ1 [2] = biological target: T2, AMPKα2β2γ1 (Homo sapiens, UniProt O43741+P54619+P54646)
T2 construct: made in house; host or cells: HEK293 (transient transfection, anti-FLAG immunoprecipitate)
Procedure: as §1, §2

AMPKα2β1γ1 [3] = biological target: T3, AMPKα2β1γ1 (Homo sapiens, UniProt P54619+P54646+Q9Y478)
T3 construct: made in house; host or cells: HEK293 (transient transfection, anti-FLAG immunoprecipitate)
Procedure: as §1, §2

AMPKα2β2γ1 [4] = biological target: T4, AMPKα2β2γ1 (Homo sapiens, UniProt P54646); conditions: 200 μM ATP; 0 to 1 μM compound
T4 construct: made in house; host or cells: HEK293 (transient transfection, anti-FLAG immunoprecipitate)
Procedure: as §1, §2

AMPKα1β1γ1 [5] = biological target: T5, AMPKα1β1γ1 (Homo sapiens, UniProt Q13131); conditions: 200 μM ATP; 0 to 1 μM compound
T5 construct: made in house; host or cells: HEK293 (transient transfection, anti-FLAG immunoprecipitate)
Procedure: as §1, §2

AMPKα2β1γ1 [6] = biological target: T6, AMPKα2β1γ1 (Homo sapiens, UniProt P54646); conditions: 200 μM ATP; 0 to 1 μM BAY-974
T6 construct: made in house; host or cells: HEK293 (transient transfection, anti-FLAG immunoprecipitate)
Procedure: as §1, §2

T1 sequence (Q13131 whole entry): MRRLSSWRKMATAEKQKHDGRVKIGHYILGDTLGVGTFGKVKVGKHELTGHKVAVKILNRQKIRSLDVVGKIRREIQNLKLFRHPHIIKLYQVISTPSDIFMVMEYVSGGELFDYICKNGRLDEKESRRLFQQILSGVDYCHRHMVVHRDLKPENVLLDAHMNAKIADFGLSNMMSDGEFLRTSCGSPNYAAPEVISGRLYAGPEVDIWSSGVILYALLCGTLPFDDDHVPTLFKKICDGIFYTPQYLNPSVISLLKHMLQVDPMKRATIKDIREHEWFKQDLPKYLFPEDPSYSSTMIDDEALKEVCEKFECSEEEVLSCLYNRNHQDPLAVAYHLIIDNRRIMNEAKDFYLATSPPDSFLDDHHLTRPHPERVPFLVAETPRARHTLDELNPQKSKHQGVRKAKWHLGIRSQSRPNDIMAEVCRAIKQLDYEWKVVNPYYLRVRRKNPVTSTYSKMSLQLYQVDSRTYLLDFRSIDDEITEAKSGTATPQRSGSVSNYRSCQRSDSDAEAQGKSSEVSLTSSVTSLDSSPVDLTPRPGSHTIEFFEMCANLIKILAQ
T1 sequence (Q9Y478 whole entry partner): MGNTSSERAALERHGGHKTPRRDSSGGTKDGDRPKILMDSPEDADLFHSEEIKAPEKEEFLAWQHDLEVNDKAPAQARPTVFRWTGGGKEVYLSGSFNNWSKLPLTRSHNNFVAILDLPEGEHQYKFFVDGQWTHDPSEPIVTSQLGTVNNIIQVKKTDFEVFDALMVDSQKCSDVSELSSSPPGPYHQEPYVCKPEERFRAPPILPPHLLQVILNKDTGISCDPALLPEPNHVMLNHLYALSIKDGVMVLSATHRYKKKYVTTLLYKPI
T1 sequence (P54619 whole entry partner): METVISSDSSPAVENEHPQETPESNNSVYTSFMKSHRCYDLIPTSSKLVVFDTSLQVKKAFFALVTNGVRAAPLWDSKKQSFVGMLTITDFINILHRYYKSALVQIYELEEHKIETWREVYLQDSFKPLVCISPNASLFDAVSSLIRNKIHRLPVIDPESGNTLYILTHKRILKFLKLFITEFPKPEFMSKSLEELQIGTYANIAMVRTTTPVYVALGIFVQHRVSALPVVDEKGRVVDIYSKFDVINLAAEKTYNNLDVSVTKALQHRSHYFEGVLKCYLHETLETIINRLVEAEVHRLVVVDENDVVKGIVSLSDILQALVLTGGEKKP
T3 sequence (P54646 whole entry): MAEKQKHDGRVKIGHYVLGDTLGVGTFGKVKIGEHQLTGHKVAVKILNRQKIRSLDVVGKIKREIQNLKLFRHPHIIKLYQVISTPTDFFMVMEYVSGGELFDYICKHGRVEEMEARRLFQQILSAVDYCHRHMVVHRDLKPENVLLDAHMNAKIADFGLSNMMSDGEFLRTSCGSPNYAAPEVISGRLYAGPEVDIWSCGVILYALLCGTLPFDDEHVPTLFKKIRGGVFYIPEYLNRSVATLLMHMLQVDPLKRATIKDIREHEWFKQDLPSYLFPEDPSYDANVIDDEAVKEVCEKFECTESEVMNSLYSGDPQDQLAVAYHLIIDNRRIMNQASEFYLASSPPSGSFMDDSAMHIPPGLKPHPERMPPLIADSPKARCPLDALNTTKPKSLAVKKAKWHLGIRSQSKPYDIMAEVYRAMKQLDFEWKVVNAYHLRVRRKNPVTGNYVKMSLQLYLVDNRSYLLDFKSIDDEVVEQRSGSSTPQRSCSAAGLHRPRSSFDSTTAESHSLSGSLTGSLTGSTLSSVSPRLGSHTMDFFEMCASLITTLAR
T3 sequence (Q9Y478 whole entry partner): as the sequence (Q9Y478 whole entry partner) above
T3 sequence (P54619 whole entry partner): as the sequence (P54619 whole entry partner) above
T2 sequence (P54646 whole entry): as the sequence (P54646 whole entry) above
T2 sequence (O43741 whole entry partner): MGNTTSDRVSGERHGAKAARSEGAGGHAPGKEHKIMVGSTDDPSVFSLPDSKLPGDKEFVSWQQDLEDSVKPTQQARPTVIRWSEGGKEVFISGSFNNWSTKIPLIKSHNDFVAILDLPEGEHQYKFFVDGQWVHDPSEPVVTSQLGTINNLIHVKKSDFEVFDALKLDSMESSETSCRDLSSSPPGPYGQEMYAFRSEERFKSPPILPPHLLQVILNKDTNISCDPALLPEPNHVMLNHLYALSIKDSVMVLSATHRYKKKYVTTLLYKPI
T2 sequence (P54619 whole entry partner): as the sequence (P54619 whole entry partner) above
T5 sequence (Q13131 whole entry): as the sequence (Q13131 whole entry) above
T5 sequence (Q9Y478 whole entry partner): as the sequence (Q9Y478 whole entry partner) above
T5 sequence (P54619 whole entry partner): as the sequence (P54619 whole entry partner) above
T6 sequence (P54646 whole entry): as the sequence (P54646 whole entry) above
T6 sequence (Q9Y478 whole entry partner): as the sequence (Q9Y478 whole entry partner) above
T6 sequence (P54619 whole entry partner): as the sequence (P54619 whole entry partner) above
T4 sequence (P54646 whole entry): as the sequence (P54646 whole entry) above
T4 sequence (O43741 whole entry partner): as the sequence (O43741 whole entry partner) above
T4 sequence (P54619 whole entry partner): as the sequence (P54619 whole entry partner) above

Row | Structure (SMILES) | IC50 (AMPKα1β1γ1 [1]; 20 μM ATP) | IC50 (AMPKα1β1γ1 [1]; 200 μM ATP) | IC50 (AMPKα2β2γ1 [2]; 20 μM ATP) | IC50 (AMPKα2β2γ1 [2]; 200 μM ATP) | IC50 (AMPKα2β1γ1 [3]; 20 μM ATP) | IC50 (AMPKα2β1γ1 [3]; 200 μM ATP) | inhibitory effect on AMPK complex (AMPKα2β2γ1 [4]) | inhibitory effect on AMPK complex (AMPKα1β1γ1 [5]) | inhibitory effect on AMPK complex (AMPKα2β1γ1 [6])
1 | CCc1ccccc1C(=O)Nc1n[nH]c2c(C)c(F)c(C3C(C#N)=C(C)N(C)C(C)=C3C#N)cc12 [BAY-3827, N-[5-(3,5-dicyano-1,2,6-trimethyl-4H-pyridin-4-yl)-6-fluoro-7-methyl-1H-indazol-3-yl]-2-ethylbenzamide] | 1.8 nM | 31.2 nM | 2.8 nM and 2.83 nM | 36.5 nM | 4.1 nM and 4.08 nM | 57 nM and 57.1 nM |  |  | 
2 | CC1=C(C#N)C(c2ccc3c(c2)c(NC(=O)c2ccccc2C)nn3C)C(C#N)=C(C)N1 [BAY-974, N-[5-(3,5-dicyano-2,6-dimethyl-1,4-dihydropyridin-4-yl)-1-methylindazol-3-yl]-2-methylbenzamide] |  |  |  |  |  |  | no effect | no effect | no effect

From publication PMC12372887, “Mechanism and cellular actions of the potent AMPK inhibitor BAY-3827” (Science Advances, 2025)
